Data from publication PMC11207149, “Novel hematopoietic progenitor kinase 1 inhibitor KHK-6 enhances T-cell activation” (PLOS ONE, 2024).

Target: T1, hematopoietic progenitor kinase 1 (HPK1) (Homo sapiens, UniProt Q92918)
T1 construct: gene MAP4K1
Experiment: radiometric [γ-33P]-ATP kinase assay (Eurofins KinaseProfiler), recombinant human HPK1, MBP substrate
Format: biochemical

T1 sequence (Q92918 whole entry): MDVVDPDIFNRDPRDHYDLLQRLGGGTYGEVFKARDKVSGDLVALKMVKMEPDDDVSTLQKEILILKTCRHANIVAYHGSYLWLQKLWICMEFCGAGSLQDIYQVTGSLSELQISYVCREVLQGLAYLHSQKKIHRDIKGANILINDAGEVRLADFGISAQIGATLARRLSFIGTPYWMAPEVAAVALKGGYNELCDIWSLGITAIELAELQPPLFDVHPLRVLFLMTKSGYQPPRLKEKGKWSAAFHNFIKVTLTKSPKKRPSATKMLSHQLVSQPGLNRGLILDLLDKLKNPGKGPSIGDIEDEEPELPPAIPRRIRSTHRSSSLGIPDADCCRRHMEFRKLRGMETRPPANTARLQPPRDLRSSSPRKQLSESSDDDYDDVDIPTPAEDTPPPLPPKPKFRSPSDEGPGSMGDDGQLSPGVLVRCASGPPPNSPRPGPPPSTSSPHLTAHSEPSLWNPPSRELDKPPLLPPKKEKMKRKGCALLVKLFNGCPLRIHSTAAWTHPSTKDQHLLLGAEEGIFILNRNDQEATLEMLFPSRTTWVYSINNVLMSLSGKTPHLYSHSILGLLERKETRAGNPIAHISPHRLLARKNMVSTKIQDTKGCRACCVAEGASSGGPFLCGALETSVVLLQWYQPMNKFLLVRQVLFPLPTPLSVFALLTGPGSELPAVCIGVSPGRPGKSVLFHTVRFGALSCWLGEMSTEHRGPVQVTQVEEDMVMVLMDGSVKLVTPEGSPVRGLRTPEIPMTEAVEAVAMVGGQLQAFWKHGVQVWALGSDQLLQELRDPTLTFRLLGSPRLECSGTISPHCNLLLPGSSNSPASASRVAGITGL

IC50: 20 nM
Structure (SMILES): CC(C)S(=O)(=O)c1ccccc1Nc1nc(Nc2ccc3c(c2)C(C)(C)OC3=O)ncc1Cl [KHK-6]
